Earlier results on 15 compounds are cited in patent US20080267939A1, “SYNERGISTIC ANTI-HYPERTENSIVE PHYTO-NUTRACEUTICAL COMPOSITION” (priority 2006, published 2008).

The test system of series [1] is patients having class III or IV cardiomiopathy. The note with it: group A, during CoQ10 treatment, oral.
Series [2] deals with rat aorta.
Series [3] addresses T1, endothelial NO synthase (eNOS) (Homo sapiens, UniProt P29474).
T1 sequence (P29474 1-1203): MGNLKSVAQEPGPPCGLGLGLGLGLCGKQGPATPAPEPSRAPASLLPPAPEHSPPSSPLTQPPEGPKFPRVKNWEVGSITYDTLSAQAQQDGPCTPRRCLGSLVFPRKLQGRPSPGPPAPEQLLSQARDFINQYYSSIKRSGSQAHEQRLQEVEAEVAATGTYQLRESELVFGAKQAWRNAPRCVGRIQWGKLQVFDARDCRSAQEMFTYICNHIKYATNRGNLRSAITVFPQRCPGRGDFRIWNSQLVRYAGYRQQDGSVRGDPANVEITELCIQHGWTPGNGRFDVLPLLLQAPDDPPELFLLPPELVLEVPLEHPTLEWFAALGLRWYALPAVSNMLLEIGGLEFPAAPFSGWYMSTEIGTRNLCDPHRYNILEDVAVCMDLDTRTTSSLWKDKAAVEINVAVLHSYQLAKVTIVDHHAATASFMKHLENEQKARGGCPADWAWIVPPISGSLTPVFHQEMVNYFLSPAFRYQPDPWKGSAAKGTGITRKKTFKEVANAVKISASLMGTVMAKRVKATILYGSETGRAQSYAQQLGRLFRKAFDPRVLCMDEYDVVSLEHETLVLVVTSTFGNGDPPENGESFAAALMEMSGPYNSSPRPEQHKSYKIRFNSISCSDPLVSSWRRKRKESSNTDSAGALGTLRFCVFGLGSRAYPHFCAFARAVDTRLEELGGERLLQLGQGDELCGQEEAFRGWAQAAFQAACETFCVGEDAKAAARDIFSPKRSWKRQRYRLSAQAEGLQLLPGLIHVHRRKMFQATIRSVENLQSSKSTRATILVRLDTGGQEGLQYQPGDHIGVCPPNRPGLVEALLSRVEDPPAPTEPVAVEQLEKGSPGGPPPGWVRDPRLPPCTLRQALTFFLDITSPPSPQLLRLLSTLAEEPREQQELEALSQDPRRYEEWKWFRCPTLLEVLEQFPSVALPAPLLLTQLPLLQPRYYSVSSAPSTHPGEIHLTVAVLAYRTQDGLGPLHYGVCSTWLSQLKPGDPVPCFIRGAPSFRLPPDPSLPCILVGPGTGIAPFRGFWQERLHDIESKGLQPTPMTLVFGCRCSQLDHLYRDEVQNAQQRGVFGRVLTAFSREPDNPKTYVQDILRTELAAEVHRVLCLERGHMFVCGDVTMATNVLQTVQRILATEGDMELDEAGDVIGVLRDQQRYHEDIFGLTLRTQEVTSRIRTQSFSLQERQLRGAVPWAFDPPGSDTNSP

Series [4] relates to aged diabetic Zucker fatty rats.
Series [5] has as its system blood pressure. The note with it: lower doses.
A further series relates to rabbit aortic rings. The note with it: pre-contracted rabbit aortic rings.
A further series concerns renal hypertensive dogs. The note with it: chronic oral administration.
For series [6], the system named is blood pressure. The note with it: clinically.
The subject of series [7] is vascular smooth muscle cells.
Series [8] addresses T2, L-type calcium channel (Rattus norvegicus, UniProt P22002).
T2 construct: Effect of puerarin on L-type calcium channel in isolated rat ventricular myocytes; endogenous in cells; host or cells: isolated rat ventricular myocytes
The note with it: rat ventricular myocytes.

Series [9] deals with rat aorta. The note with it: endothelium-intact and endothelium-denuded rat aorta.
Series [10] has as its target T3, L-type calcium channel (Cavia porcellus, UniProt O35505).
T3 construct: calcium channel in isolated guinea pig ventricular myocytes; endogenous in cells; host or cells: isolated guinea pig ventricular myocytes
The note with it: isolated guinea pig ventricular myocytes.

Series [11] concerns blood pressure. The note with it: in vivo.
Series [12] deals with bacterial resistance mechanism (multidrug pump). The note with it: in the presence of 5′-MHC.
Series [13] relates to spontaneously hypertensive rats.
The subject of series [14] is vascular smooth muscle cells. The source holds these as a separate data set.
Series [15] deals with platelet activating factor (PAF) membrane receptors (Homo sapiens, UniProt P25105).
platelet activating factor (PAF) membrane receptors, sequence (P25105 whole entry): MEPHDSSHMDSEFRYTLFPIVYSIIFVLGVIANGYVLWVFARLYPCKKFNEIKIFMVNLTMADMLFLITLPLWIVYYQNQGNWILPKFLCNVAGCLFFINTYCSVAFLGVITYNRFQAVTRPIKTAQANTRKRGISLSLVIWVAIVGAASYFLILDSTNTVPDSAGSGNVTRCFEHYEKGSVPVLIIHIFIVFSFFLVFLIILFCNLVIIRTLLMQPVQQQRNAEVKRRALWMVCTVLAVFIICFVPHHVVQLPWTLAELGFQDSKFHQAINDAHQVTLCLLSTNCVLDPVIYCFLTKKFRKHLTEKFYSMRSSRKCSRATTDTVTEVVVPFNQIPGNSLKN

T3 sequence (O35505 whole entry): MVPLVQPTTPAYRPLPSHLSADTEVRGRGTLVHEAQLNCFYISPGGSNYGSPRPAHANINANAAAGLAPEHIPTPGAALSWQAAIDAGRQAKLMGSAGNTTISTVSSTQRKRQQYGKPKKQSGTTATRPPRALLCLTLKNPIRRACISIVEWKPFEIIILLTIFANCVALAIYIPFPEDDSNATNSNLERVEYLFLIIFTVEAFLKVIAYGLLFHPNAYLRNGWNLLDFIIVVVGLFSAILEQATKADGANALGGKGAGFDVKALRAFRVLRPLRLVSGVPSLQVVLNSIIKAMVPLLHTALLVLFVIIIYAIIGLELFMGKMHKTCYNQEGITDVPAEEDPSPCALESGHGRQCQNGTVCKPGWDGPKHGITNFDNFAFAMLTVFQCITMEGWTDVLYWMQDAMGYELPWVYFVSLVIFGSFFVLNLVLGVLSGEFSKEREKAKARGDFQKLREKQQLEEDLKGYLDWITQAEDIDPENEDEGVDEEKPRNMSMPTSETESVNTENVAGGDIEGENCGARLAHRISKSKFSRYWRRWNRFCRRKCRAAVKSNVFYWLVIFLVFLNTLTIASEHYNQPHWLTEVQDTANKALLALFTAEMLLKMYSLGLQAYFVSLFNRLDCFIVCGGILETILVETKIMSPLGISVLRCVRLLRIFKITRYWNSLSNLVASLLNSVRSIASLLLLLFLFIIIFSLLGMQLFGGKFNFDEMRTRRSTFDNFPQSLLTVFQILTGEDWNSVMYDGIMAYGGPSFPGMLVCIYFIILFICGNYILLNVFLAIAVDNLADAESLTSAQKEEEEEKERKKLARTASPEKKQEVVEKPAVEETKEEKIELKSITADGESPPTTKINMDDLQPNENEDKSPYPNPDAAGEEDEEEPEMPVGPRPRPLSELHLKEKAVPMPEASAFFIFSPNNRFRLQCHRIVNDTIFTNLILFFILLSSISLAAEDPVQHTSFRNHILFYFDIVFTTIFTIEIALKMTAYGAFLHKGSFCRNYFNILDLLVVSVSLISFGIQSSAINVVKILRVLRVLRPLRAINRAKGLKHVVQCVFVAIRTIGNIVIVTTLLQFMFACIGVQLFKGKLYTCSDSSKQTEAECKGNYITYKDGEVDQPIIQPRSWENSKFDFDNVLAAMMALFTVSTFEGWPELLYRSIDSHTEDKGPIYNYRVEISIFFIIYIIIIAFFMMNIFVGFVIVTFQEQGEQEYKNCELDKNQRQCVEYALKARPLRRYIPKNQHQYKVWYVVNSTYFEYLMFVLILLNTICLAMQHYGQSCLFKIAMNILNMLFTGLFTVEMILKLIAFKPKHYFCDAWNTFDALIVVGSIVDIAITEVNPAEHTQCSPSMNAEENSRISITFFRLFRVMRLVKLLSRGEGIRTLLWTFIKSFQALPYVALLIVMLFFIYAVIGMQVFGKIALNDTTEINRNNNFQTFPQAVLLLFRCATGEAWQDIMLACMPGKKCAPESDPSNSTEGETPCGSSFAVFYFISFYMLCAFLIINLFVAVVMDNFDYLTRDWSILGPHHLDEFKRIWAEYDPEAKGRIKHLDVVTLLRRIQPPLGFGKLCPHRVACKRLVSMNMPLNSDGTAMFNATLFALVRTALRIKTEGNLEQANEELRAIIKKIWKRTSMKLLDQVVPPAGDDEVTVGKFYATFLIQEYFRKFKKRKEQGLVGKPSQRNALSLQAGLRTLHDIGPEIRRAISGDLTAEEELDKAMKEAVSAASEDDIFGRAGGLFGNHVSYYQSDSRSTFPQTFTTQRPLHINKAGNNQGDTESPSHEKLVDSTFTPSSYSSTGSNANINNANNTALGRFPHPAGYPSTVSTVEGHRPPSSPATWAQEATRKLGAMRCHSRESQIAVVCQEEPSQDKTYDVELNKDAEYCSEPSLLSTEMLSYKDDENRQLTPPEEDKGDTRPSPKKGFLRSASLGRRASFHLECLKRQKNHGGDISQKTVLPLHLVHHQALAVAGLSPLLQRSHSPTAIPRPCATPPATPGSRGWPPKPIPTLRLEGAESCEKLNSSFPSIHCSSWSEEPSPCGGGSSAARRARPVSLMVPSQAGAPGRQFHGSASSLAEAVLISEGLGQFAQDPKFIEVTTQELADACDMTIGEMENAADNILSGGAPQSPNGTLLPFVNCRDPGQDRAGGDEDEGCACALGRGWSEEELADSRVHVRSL

As for `COC1=C(OC)C(=O)C(C/C=C(\C)CC/C=C(\C)CC/C=C(\C)CC/C=C(\C)CC/C=C(\C)CC/C=C(\C)CC/C=C(\C)CC/C=C(\C)CC/C=C(\C)CCC=C(C)C)=C(C)C1=O` [CoQ10, Coenzyme Q10], in series [1], the cardiac function entry is recorded as “significant increases in cardiac function”. In the case of cycloleonuripeptide F, the vasorelaxant effects result with rat aorta [2] was “moderate vasorelaxant effects”. Regarding `CC(C)=CCC[C@](C)(O[C@@H]1O[C@H](CO)[C@@H](O)[C@H](O)[C@H]1O)[C@H]1CC[C@]2(C)[C@@H]1[C@H](O)C[C@@H]1[C@@]3(C)CC[C@H](O)C(C)(C)[C@@H]3[C@@H](O[C@@H]3O[C@H](CO)[C@@H](O)[C@H](O)[C@H]3O[C@@H]3O[C@@H](C)[C@H](O)[C@@H](O)[C@H]3O)C[C@]12C` [Ginsenoside Re], in [3], the “eNOS activation / NO release” value was “activate endothelial NO synthase (eNOS) to release NO”. For the compound niacin-bound chromium, the “blood pressures compared to control” value in series [4] is recorded as “significantly lowered blood pressures”. Consider `CCCCC/C=C/C(=O)CCc1ccc(O)c(OC)c1` [(6)-shogaol], for which the “response on the blood pressure” value in the series on blood pressure [5] was “produced depressor response”.

Turning to Cycloleonuripeptide E, the vasorelaxant effects entry in the series on rat aorta [2] is “moderate vasorelaxant effects”. In the case of `O=C(O)CC[N+](=O)[O-]` [NPA, 3-Nitropropionic acid], the “relaxation of aortic rings” value with rabbit aortic rings was “dose-dependent relaxation”. Also, the blood pressure entry in the series on renal hypertensive dogs is “decrease in blood pressure”. Consider `O=c1c(-c2ccc(O)cc2)coc2c([C@@H]3O[C@H](CO)[C@@H](O)[C@H](O)[C@H]3O)c(O)ccc12` [Puerarin, puerarin], for which the “decrease of blood pressure” value in the series on laboratory animals is 15%. In the series with blood pressure [6], the “systolic and diastolic blood pressure” value is “reduces both systolic and diastolic blood pressure”. Besides, the “NO concentration and blood pressure” value in the series on rats with pre-eclampsia is “elevate the level of NO concentration and decrease blood pressure”. Besides, in [7], the “proliferation and DNA synthesis of vascular smooth muscle cells” value is “suppress”. In addition, on L-type calcium channel [8], the L-type calcium current entry is “inhibit L-type calcium current”. Also, the “contractions induced by phenylephrine” value in the series on rat aorta [9] is “completely relaxed”. Further, the “effect on L-type calcium channel” value at L-type calcium channel [10] is “blocking effect on L-type calcium channel in a concentration dependent manner”. In the case of `O=C(O)CC(O)(C(=O)O)C(O)C(=O)O` (single isomer, unassigned; (-)) [(−)-hydroxycitric acid (HCA), (−)-hydroxycitric acid], in series [4], the “blood pressures compared to control” value is given as “significantly lowered blood pressures”. Turning to `C[C@@H]1O[C@@H](O[C@@H]2[C@@H](O)[C@H](OCCc3ccc(O)c(O)c3)O[C@H](CO)[C@H]2OC(=O)/C=C/c2ccc(O)c(O)c2)[C@H](O[C@@H]2OC[C@@H](O)[C@@H](O)[C@@H]2O)[C@H](O)[C@H]1O` [Lavandulifolioside], the blood pressure entry with blood pressure [11] is “decreases blood pressure”. With `CCCCC[C@H](O)CC(=O)CCc1ccc(O)c(OC)c1` [(6)-gingerol], the “response on the blood pressure” value in the series on blood pressure [5] is recorded as “produced depressor response”. With `COc1cc([C@H]2Oc3cc(-c4cc(=O)c5c(O)cc(O)cc5o4)cc(OC)c3O[C@@H]2CO)ccc1O` (racemic) [5′-MHC, 5′-methoxyhydnocarpin], the “accumulation of berberine in the cells” value in [12] is “strong increase”. In the case of `COc1cc(/C=C/C(=O)O)ccc1O` [ferulic acid], the carotid arterial pressure result in [13] (intravenous injection, anesthetized hypertensive rats) is reported as “dose dependently reduced”. The systolic blood pressure entry in [13] (oral administration, hypertensive rats) is given as “significantly decreased”. Take `CCC/C=C1\OC(=O)C2=C1CCC=C2` [ligustilide]: in series [14], the “vascular smooth muscle cells proliferation and cell cycle progression” value is on record as “significantly inhibited”.

`CC1C(=O)OC2C(O)C34C5CC(C(C)(C)C)C36C(OC(=O)C6O)OC4(C(=O)O5)C12O` (centres unmarked) [Ginkgolide B]: the “inhibition of platelet activating factor (PAF)” value in series [15] is listed as “powerful inhibitor”.
